Laboratory results reported in patent US20030083304A1, “CCAAT/enhancer binding protein-beta (C/EBPbeta) is a molecular target for cancer treatment” (priority 2001, published 2003).
Marks after values point to notes of the source that are not given here.

What was measured:
[1] = test system: C/EBPβ; assay: Ha-ras (12V)-induced activation of C/EBPβ in mouse keratinocytes; type: cell-based
Text: A MAPK site has been identified in C/EBPβ. Replacing Thr-188 with an Ala-188 within this site completely blocks Ras-induced activation of C/EBPβ. […] Thus, the MAPK site in C/EBPβ, which is conserved in mouse, rat, bovine and human, is important in Ras signaling. Accordingly, useful compounds of the present invention are MAPK inhibitors such as PD98059, or compounds that bind the MAPK site in C/EBPβ and thus block oncogenic ras-induced activation.

[2] = test system: epidermal keratinocytes; assay: Apoptotic epidermal keratinocytes in DMBA-treated mice; type: in vivo, mouse; conditions: for Apoptotic Keratinocytes (%): single application 400 nmol DMBA
Text: The lack of tumor development in carcinogen treated C/EPBβ-null mice could be due to apoptosis of C/EBPβ-deficient keratinoyctes that have acquired oncogenic Ha-ras lesions. To examine this possibility we treated mice with DMBA and scored the number of apoptotic keratinocytes in C/EBPβ-null and wild type epidermis using the cytological parameters described in the Methods. […] Similar fold increases in apoptotic cells were observed using TUNEL staining (data not shown). To determine if C/EBPβ-null mice also display increased apoptosis in response to UVB irradiation, a potent inducer of apoptosis and DNA damage, wild type and C/EBPβ-null mice were irradiated with UVB doses of 50, 100 and 200 mJ/cm^2. While all UVB doses increased the number of apoptotic epidermal keratinocytes, there was no difference between wild type and mutant mice (data not shown).

[3] = test system: mouse skin; conditions: in vivo

COc1cccc(-c2cc(=O)c3ccccc3o2)c1N [PD98059]
Ha-ras (12V)-induced activation of C/EBPβ [1]: partially blocks

Cc1c2ccccc2c(C)c2c1ccc1ccccc12 [DMBA, 7,12-dimethylbenz[a]anthracene]
increase in the number of basal apoptotic keratinocytes, C/EBPβ-null vs wild type mice ([2]; DMBA-treated): 17 fold | Apoptotic Keratinocytes (%) ([2]; C/EBPβ −/− mice): 1.73 ± 0.14^ab % | Apoptotic Keratinocytes (%) ([2]; wild type mice): 0.10 ± 0.02^a % | average papillomas/mouse ([3]; 129/Sv x C57BL/6 (wild type)): 12 papillomas/mouse | papilloma incidence [3]: All of the wild-type mice developed papillomas | resistance to carcinogenesis [3]: completely resistant

ClC1(Cl)C2(Cl)C3(Cl)C4(Cl)C(Cl)(Cl)C5(Cl)C3(Cl)C1(Cl)C5(Cl)C24Cl (centres unmarked) [mirex]
tumor development [3]: refractory
